The source made the active and inactive calls. No cut-off for these calls is given here.
Key:
[1] = target: T1, Cyclin-dependent kinases regulatory subunit 1/S-phase kinase-associated protein 2 (Homo sapiens, UniProt P61024+Q13309); test: Inhibition of Cks1-Skp2 (unknown origin) interaction after 30 mins by ELISA; format: protein assay
A549 [2] = test: Antiproliferative activity against human A549 cells after 2 days; format: functional, cell-based
NCI-H1299 = test: Antiproliferative activity against human H1299 cells after 2 days; format: functional, cell-based
[3] = Antiproliferative activity against human HT1080 cells after 6 days; format: functional; details: HT-1080, 144 h
A549 [4] = test: Antiproliferative activity against human A549 cells after 6 days; format: functional; details: A549, 144 h
[5] = target: T1, Cyclin-dependent kinases regulatory subunit 1/S-phase kinase-associated protein 2; test: Inhibition of Cks1-Skp2 (unknown origin) interaction assessed as increase in p27-GFP level by ELISA; format: protein assay
Target sequence in this assay (P61024 2-79 limits assumed): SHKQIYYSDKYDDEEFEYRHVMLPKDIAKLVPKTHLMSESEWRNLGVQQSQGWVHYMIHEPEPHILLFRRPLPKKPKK
Target sequence in this assay (Q13309 whole entry partner): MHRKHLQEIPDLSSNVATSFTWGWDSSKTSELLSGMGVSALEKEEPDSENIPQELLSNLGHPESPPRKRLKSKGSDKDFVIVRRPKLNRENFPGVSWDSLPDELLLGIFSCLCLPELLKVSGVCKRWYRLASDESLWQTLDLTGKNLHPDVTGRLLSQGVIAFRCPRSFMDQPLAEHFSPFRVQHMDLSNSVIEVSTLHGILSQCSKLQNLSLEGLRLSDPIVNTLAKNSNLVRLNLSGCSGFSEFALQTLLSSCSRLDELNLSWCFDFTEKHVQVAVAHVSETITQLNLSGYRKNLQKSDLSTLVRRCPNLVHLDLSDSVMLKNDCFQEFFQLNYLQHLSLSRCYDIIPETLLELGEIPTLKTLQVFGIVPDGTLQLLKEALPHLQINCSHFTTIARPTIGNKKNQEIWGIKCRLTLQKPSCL

[6] = target: T1, Cyclin-dependent kinases regulatory subunit 1/S-phase kinase-associated protein 2; test: Inhibition of Cks1-Skp2 (unknown origin) interaction assessed as increase in p27-GFP level by western blot analysis; format: protein assay
Target sequence in this assay (P61024 2-79 limits assumed): as the sequence (P61024 2-79 limits assumed) above
Target sequence in this assay (Q13309 whole entry partner): as the sequence (Q13309 whole entry partner) above

[7] = Homo sapiens, A549, 48 h, read-out: IC50
[8] = Homo sapiens, NCI-H1299, 48 h, read-out: IC50

SMILES | IC50 (A549 [2]; [7]) [µM] | IC50 (NCI-H1299; [8]) [µM] | GI50 [3] [µM] | GI50 (A549 [4]) [µM] | Activity [5] | Activity [6] | other results
Cc1ccc(S(=O)(=O)Nc2cccc3cccnc23)cc1 | 7.54 | 5.35 | 2.46 | 2.48 | Active | Active | IC50 ([1]; read-out: IC50): 2.18 µM
CS(=O)(=O)Nc1ccc(-c2ccncc2)c2cccnc12 |  |  |  |  | inactive | inactive | IC50 [1]: Not Active
COc1ccc(S(=O)(=O)Nc2ccc(-c3cccnc3)c3cccnc23)cc1 | 7.94 | 5.31 | 0.44 | 1.24 | Active | Active | IC50 ([1]; read-out: IC50): 0.58 µM
Cc1ccc(NS(=O)(=O)c2ccc(-c3ccccc3)c3cccnc23)cc1 |  |  |  |  |  |  | inhibition [1]: inactive
O=S(=O)(Nc1ccc(-c2cccnc2)c2cccnc12)c1cccnc1 | 1.49 | 1.05 | 0.4 | 0.91 | Active | Active | 
O=S(=O)(Nc1ccc(-c2ccncc2)c2cccnc12)C1CC1 |  |  |  |  | inactive | inactive | 
Cc1ccc(S(=O)(=O)Nc2ccc(-c3cccnc3)c3cccnc23)cc1 | 7.13 | 6.95 | 4.22 | 6.02 | Active | Active | 
O=S(=O)(Nc1ccc(-c2cccnc2)c2cccnc12)c1cccc(C(F)(F)F)c1 | 5.91 | 3.9 |  |  | Active | Active | 
Cc1ccc(S(=O)(=O)Nc2ccc(N3CCC(Cc4ccccc4)CC3)c3cccnc23)cc1 |  |  |  |  | inactive | inactive | IC50 [1]: Not Active
COc1ccc(Oc2cc(NS(=O)(=O)c3ccc(C)cc3)c3ncccc3c2)cc1 | 16.9 | 11.3 | 0.74 | 4.09 | inactive | inactive | 
CS(=O)(=O)Nc1ccc(-c2ccccc2)c2cccnc12 |  |  |  |  | Active | Active | 
COc1ccc(S(=O)(=O)Nc2ccc(-c3ccncc3)c3cccnc23)cc1 |  |  | 1.07 | 5.24 | Active | Active | IC50 ([1]; read-out: IC50): 2.45 µM; IC50 (A549 [2]; a549): Not Active; IC50 (NCI-H1299; nci-h1299): Not Active
Cc1ccc(S(=O)(=O)Nc2ccc(-c3ccsc3)c3cccnc23)cc1 | 4.63 | 4.09 | 0.64 | 2.36 | Active | Active | 
Cc1ccc(S(=O)(=O)Nc2ccc(-c3ccccc3)c3cccnc23)cc1 | 7.22 | 8.56 | 1.64 | 2.36 | Active | Active | 
O=S(=O)(Nc1ccc(-c2ccccc2)c2cccnc12)C1CC1 |  |  |  |  | inactive | inactive | 
Cc1ccc(S(=O)(=O)Nc2ccc(Br)c3cccnc23)cc1 |  |  |  |  | Active | Active | 

SMILES | IC50 (A549 [2]; [7]) [µM] | IC50 (NCI-H1299; [8]) [µM] | GI50 [3] [µM] | GI50 (A549 [4]) [µM] | Activity [5] | Activity [6] | other results
Cc1ccc(S(=O)(=O)Nc2cc(Oc3cc(F)cc(F)c3)cc3cccnc23)cc1 | 2.94 | 2.46 | 0.08 | 4.11 | Active | Active | 
COc1ccc(S(=O)(=O)Nc2ccc(-c3ccccc3)c3cccnc23)cc1 |  |  |  |  | Active | Active | 
Cc1ccc(S(=O)(=O)N(C)c2cccc3cccnc23)cc1 |  |  |  |  |  |  | inhibition [1]: inactive
Cc1ccc(S(=O)(=O)Nc2ccc(Br)c3ccccc23)cc1 |  |  | 27.4 | 48.5 |  |  | inhibition [1]: inactive; IC50 (A549 [2]; a549): Not Active; IC50 (NCI-H1299; nci-h1299): Not Active
Cc1ccc(S(=O)(=O)Nc2ccc(-c3ccccc3)c3ccncc23)cc1 |  |  |  |  |  |  | inhibition [1]: inactive
Cc1ccc(S(=O)(=O)Nc2cc(Oc3cccc(C#N)c3)cc3cccnc23)cc1 |  |  | 6.83 | 6.48 |  |  | IC50 (A549 [2]; a549): Not Active; IC50 (NCI-H1299; nci-h1299): Not Active
O=S(=O)(Nc1ccc(-c2ccncc2)c2cccnc12)c1cccnc1 | 11.8 | 9.48 | 1.07 | 5.88 | inactive | inactive | 
CS(=O)(=O)Nc1ccc(-c2cccnc2)c2cccnc12 |  |  |  |  | inactive | inactive | 
O=S(=O)(Nc1ccc(-c2ccccc2)c2cccnc12)c1cccc(C(F)(F)F)c1 |  |  |  |  | Active | Active | 
Cc1ccc(S(=O)(=O)Nc2ccc(-c3ccco3)c3cccnc23)cc1 |  |  | 9.78 | 26 | Active | Active | IC50 (A549 [2]; a549): Not Active; IC50 (NCI-H1299; nci-h1299): Not Active
O=S(=O)(Nc1ccc(-c2ccccc2)c2cccnc12)c1cccnc1 |  |  |  |  | Active | Active | 
Cc1ccc(C(=O)Nc2ccc(Br)c3cccnc23)cc1 |  |  |  |  |  |  | inhibition [1]: inactive
Cc1ccc(S(=O)(=O)Nc2ccc(-c3cc4ccccc4s3)c3cccnc23)cc1 |  |  | 0.15 | 0.39 | Active | Active | IC50 (A549 [2]; a549): Not Active; IC50 (NCI-H1299; nci-h1299): Not Active
Cc1ccc(S(=O)(=O)Nc2ccc(N3CCN(C)CC3)c3cccnc23)cc1 |  |  |  |  | inactive | inactive | IC50 [1]: Not Active
O=S(=O)(Nc1ccc(-c2cccnc2)c2cccnc12)C1CC1 |  |  |  |  | inactive | inactive | 
Cc1ccc(S(=O)(=O)Nc2ccc(N3CCOCC3)c3cccnc23)cc1 |  |  |  |  | inactive | inactive | IC50 [1]: Not Active

— ChEMBL document CHEMBL3632500, “Developing structure-activity relationships from an HTS hit for inhibition of the Cks1-Skp2 protein-protein interaction” (Bioorg Med Chem Lett, 2015)
